# Results reported in PMC4869175, “Evidence that phytochrome functions as a protein kinase in plant light signalling” (Nature Communications, 2016).
# Key:
# [1] = molecular target: T1, D422R AsphyA mutant (full-length) (Avena sativa, UniProt P06593, D422R); assay: Photoaffinity labelling with 8-azido-ATP (ATP-binding affinity assay); conditions: 5 μM 8-azido-ATP; labelling of WT AsphyA with 5 μM assumed as 100%
# T1 construct: After preparing purified full-length AsphyA mutants; made in house; host or cells: Pichia pastoris GS115
# Description: (§1) Figure 4 Phosphorylation analyses of AsphyA mutants with reduced kinase activity. (a) Kinase activity assays of the AsphyA mutants. In all, 1.0 μg of GST/strep-fused PIF3 (∼0.3 μM) was added as a substrate in reaction mixtures with 1.0 μg of either full-length WT or a mutant (K411L, T418D or D422R) AsphyA protein (∼0.2 μM). (b) Protein–protein interaction analysis between PIF3 and the AsphyA kinase mutants. GST was included as a negative control. (c) ATP-binding affinity assays of AsphyA kinase mutants using photoaffinity labelling with 8-azido-ATP. 1.0 μg of full-length AsphyA protein (∼80 nM) was labelled with the indicated concentrations of 8-azido-ATP. The percentages of 8-azido-ATP labeling were obtained where the labelling of WT AsphyA with 5 μM azido-ATP was assumed as 100%. Error bars represent s.d. from three independent measurements.
# (§2) To investigate ATP-binding to AsphyA proteins, photoaffinity labelling experiments were carried out using 8-N3-ATP-biotin-long chain-hydrazone (8-azido-ATP), which were purchased from Affinity Labeling Technologies, Inc. Purified phytochrome proteins (1.0 μg) were pre-incubated for 30 min on ice in 50 μl of photoaffinity labelling buffer (20 mM Tris-HCl, pH 7.0, 2 mM EDTA, 2 mM MgCl2 and 150 μM ATP), and then 8-azido-ATP was applied with indicated concentrations. […]
# (§3) Supplementary Figure 15. […] Full-length wild-type and mutant AsphyA proteins were labeled with the indicated concentrations of 8-azido-ATP, and the azido-ATP-labeled proteins were detected with avidin-HRP (upper panels).
# (§4) Amounts of AsphyA proteins (ca. 1.0 µg) used in these reactions are shown as loading controls in lower panels, which were analyzed using western blots with oat22 antibody.
# (§5) Phosphorylation analysis of the D422R mutant of A610 (DR/A610). […] Wild-type (A610) and DR/A610 mutant proteins were labeled with the indicated concentrations of 8-azido-ATP, and the 8-azido-ATP labeled proteins were detected with avidin-HRP (upper panel).
# [2] = molecular target: T2, K411L AsphyA mutant (full-length) (Avena sativa, UniProt P06593, K411L); assay: as above; conditions: 5 μM 8-azido-ATP; labelling of WT AsphyA with 5 μM assumed as 100%
# T2 construct: After preparing purified full-length AsphyA mutants; made in house; host or cells: Pichia pastoris GS115
# Description: as §1, §2, §3, §4, §5
# [3] = molecular target: T3, T418D AsphyA mutant (full-length) (Avena sativa, UniProt P06593, T418D); assay: as above; conditions: 5 μM 8-azido-ATP; labelling of WT AsphyA with 5 μM assumed as 100%
# T3 construct: After preparing purified full-length AsphyA mutants; made in house; host or cells: Pichia pastoris GS115
# Description: as §1, §2, §3, §4, §5
# [4] = molecular target: T4, photosensory core of AsphyA (66-610) (Avena sativa, UniProt P06593); assay: Photoaffinity labelling of the photosensory core with 8-azido-ATP and competition by unlabeled ATP; assay type: binding; conditions: 10 μM 8-azido-ATP
# T4 construct: the PAS-GAF-PHY photosensory core (66–610aa) were also cloned into pPIC3.5K; made in house; host or cells: Pichia pastoris GS115
# T4 sequence (P06593 66-610): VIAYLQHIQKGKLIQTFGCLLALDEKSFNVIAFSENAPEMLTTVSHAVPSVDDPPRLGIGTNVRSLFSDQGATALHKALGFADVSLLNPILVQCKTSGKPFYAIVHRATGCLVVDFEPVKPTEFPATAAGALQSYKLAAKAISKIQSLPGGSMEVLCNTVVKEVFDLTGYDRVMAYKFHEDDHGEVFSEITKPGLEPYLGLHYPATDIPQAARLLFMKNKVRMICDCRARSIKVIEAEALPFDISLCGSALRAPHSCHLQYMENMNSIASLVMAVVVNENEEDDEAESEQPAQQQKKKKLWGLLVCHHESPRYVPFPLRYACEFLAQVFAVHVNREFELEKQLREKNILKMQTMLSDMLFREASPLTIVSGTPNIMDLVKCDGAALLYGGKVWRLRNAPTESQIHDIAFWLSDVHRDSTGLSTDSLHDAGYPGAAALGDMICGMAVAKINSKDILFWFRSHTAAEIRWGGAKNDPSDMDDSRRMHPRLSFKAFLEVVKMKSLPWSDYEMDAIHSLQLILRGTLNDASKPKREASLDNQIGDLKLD
# Description: To investigate ATP-binding to AsphyA proteins, photoaffinity labelling experiments were carried out using 8-N3-ATP-biotin-long chain-hydrazone (8-azido-ATP), which were purchased from Affinity Labeling Technologies, Inc. Purified phytochrome proteins (1.0 μg) were pre-incubated for 30 min on ice in 50 μl of photoaffinity labelling buffer (20 mM Tris-HCl, pH 7.0, 2 mM EDTA, 2 mM MgCl2 and 150 μM ATP), and then 8-azido-ATP was applied with indicated concentrations. After incubation for 5 more min on ice, ultraviolet light at 254 nm was then irradiated for 90 s using a hand-held ultraviolet lamp at 4 cm from the surface of the reaction mixtures. Immediately after photoaffinity labelling, reactions were stopped by adding SDS sample buffer, and the 8-azido-ATP-labelled phytochromes were detected with 1:2,000 avidin-HRP (A-115, Boston Biochem). After development, the images were scanned and opened by ImageJ, a Java-based image-processing software, to quantitate the photoaffinity labelling with azido-ATP analogues. Background signal was subtracted before normalization. […]
# Supplementary Figure 11. […] 8-azido-ATP labeled proteins were then detected using avidin-HRP. […] The band intensities were quantified using ImageJ software, and the percentages of 8-azido-ATP labeling were normalized to the 66-610 protein signals. […]
# T2 sequence (P06593 whole entry K411L): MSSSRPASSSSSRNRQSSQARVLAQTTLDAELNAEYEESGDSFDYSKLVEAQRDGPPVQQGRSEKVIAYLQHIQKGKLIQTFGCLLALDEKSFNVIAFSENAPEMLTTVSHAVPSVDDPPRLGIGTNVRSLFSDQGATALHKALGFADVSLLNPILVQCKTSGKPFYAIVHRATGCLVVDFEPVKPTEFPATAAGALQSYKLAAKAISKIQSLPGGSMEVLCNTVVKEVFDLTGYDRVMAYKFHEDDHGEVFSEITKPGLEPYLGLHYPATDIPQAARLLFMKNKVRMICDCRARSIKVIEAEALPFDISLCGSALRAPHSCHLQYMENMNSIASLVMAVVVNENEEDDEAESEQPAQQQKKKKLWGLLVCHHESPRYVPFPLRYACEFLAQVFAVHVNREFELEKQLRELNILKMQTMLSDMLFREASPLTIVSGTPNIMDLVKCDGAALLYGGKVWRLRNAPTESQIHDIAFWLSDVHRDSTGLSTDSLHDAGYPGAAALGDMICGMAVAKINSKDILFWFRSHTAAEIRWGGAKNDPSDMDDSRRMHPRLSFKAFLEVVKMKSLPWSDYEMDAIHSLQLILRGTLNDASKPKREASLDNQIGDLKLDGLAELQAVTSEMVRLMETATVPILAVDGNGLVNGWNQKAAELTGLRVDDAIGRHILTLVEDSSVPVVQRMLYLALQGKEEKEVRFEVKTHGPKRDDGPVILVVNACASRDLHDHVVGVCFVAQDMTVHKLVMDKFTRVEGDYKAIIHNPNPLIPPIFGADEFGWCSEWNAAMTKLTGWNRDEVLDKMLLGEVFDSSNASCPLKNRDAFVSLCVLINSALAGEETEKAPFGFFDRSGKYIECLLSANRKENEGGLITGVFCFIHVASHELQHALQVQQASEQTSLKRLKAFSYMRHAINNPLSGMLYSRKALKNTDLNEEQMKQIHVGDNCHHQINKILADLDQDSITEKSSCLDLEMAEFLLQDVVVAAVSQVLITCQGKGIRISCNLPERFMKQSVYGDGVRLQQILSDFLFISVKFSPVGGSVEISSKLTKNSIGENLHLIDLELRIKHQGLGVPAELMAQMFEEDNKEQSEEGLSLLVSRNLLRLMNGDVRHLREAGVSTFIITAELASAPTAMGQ
# T1 sequence (P06593 whole entry D422R): as the sequence (P06593 whole entry K411L) above, with L411K, D422R counted along it
# T3 sequence (P06593 whole entry T418D): as the sequence (P06593 whole entry K411L) above, with L411K, T418D counted along it
compound,measurement,setting,value
8-N3-ATP-biotin-long chain-hydrazone [8-azido-ATP],"8-azido-ATP labelling, % of the WT AsphyA",[1],~5%
same,"8-azido-ATP labelling, % of the WT AsphyA",[2],~30%
same,"8-azido-ATP labelling, % of the WT AsphyA",[3],~17%
same,photoaffinity labelling of the photosensory core,"[4]; UV 90 s, Pr and Pfr forms",labelled
Nc1ncnc2c1ncn2[C@@H]1O[C@H](COP(=O)(O)OP(=O)(O)OP(=O)(O)O)[C@@H](O)[C@H]1O [ATP],concentration of unlabeled ATP that inhibited 8-azido-ATP photoaffinity labeling,[4]; unlabeled ATP 0-30 mM,approximately 7.5 mM
